Like-named read-outs stand apart in the source and are kept apart here. Non-standard residues stand in square brackets, D forms with d. Residues, ends and D or L forms follow the SMILES beside them. *: point of attachment. Nle = CCCC[C@H](N)C(=O)O; Cbz = O=C(OCc1ccccc1)*; CH2F = FC*
Legend:
[1] = system: HT-1080, BJeLR and Calu-1 cells; assay: Modulatory profiling of cell death inhibitors against erastin; type: cell-based, human; details: erastin 10 μM, 24 hours; 10-point, 4-fold dilution series
Method: The day before the experiment, cells were seeded in black, 384-well clear bottom plates (Corning) at a density of 1,000 cells/well using a Beckman Biomek FX Workstation. All compounds (except 3-methyladenine and chloroquine, which were diluted in water) were diluted in DMSO at 250 times the final highest test concentration, and aliquoted across a 384-well plate (Greiner, Monroe, N.C.). A ten-point, 4-fold dilution series of each inhibitor in DMSO was made using a multichannel pipette. Replicates of this mother plate were stored at −20° C. […] Medium was removed from cells and replaced with 36 μL medium containing DMSO (0.1%) or erastin (10 μM final concentration). Using the Biomek FX, 4 μL were then transferred from each inhibitor daughter plate into the DMSO-containing or erastin-containing assay plates. For 3-methyladenine and chloroquine, inhibitors were prepared fresh in media at 10-fold the final concentration in the presence of DMSO or 10 μM erastin. These solutions were manually pipetted onto cells in 384-well format. Assay plates were incubated at 37° C. for 24 hours. Viability was assessed using Alamar Blue.
The modulatory effect (Me) for drug-drug interactions was computed as follows. First, plate-based background correction was performed using Alamar Blue values from empty (cell-free) wells included on each plate. Next, within each experiment, 100% viability is determined as the average Alamar Blue score for cells treated with modulator=DMSO and lethal=DMSO, and all Alamar Blue values were scaled from 0 to 1 with the DMSO×DMSO condition=1. The individual effects of each modulator and lethal (e.g. in the presence of DMSO) at all tested doses were then ascertained. […] Next, BExp was compared to the actual observed viability. […] By default, Me in DMSO-treated cells is equal to 0. […] Me values for each inhibitor-lethal drug combination were hierarchically clustered and plotted as a heatmap using the heatmaps.2 function of the gplots library in R.

[2] = Metabolic stability in mouse liver microsomes; type: in vitro ADME; details: for Elimination rate constant (k) / Intrinsic Clearance (CLint) (mL/min/g liver): Mouse; for half-life at 0.5 μM: mouse, liver microsomes
Method: Test compounds (0.5 μM) were incubated at 37° C. for up to 45 minutes in 50 mM of potassium phosphate buffer (pH 7.4) containing mouse liver microsomal protein (0.5 mg/mL) and an NADPH generating system (0.34 mg/mL β-nicotinamide adenine dinucleotide phosphate (NADP), 1.56 mg/mL glucose-6-phosphate, 1.2 units/mL glucose-6-phosphate dehydrogenase). At 0, 5, 15, 30, and 45 minute intervals, an aliquot was taken and quenched with acetonitrile (ACN) containing internal standard. No-cofactor controls at 45 minutes were prepared. Following completion of the experiment, the samples were analyzed by LC-MS/MS.
The half-life (t1/2) was calculated using the following equation: t1/2=0.693/k Where, k is the elimination rate constant of test compounds obtained by fitting the data to the equation: C=initial×exp(−k×t) Intrinsic clearance (Clint) is calculated as liver clearance from the half-life using the following equation: […]
0.5 mg protein/mL incubation
Ethoxycoumarin was used as a control.

HT-1080 cells = assay: Inhibition of erastin (10 μM)-induced death in HT-1080 cells (Alamar Blue); type: cell-based, human; details: for EC50: Homo sapiens, read-out: EC50
Method: Cell viability was typically assessed in 384-well format by Alamar Blue (Invitrogen) fluorescence (ex/em 530/590) measured on a Victor3 platereader (Perkin Elmer, Waltham, Mass.). In some experiments, Trypan Blue dye exclusion counting was performed using an automated cell counter (ViCell, Beckman-Coulter Inc., Brea, Calif.). Cell viability in test conditions is reported as a percentage relative to the negative control treatment.
The ability of various compounds disclosed herein to inhibit death in erastin (10 μM)-treated HT-1080 cells were tested. Cell viability was assessed by Alamar Blue. EC50 values (nM) were computed from dose response curves.
HT-1080 cells are cultured in DMEM containing 10% fetal bovine serum, 1% supplemented non-essential amino acids and 1% pen/strep mixture (Gibco) and maintained in a humidified environment at 37° C. with 5% CO2 in a tissue culture incubator. 1,000 HT-1080 cells are seeded per well in duplicate 384-well plates (Corning) using a BioMek FX liquid handling robot (Beckman Coulter). The next day, the medium is replaced with 36 μL of medium containing 10 μM erastin with 4 μL of medium containing a dilution series (previously prepared) of DMSO, Fer-1 (positive control) or Fer-1 analogs. 24 hours later, 10 μL Alamar Blue (Invitrogen) cell viability solution is added to the growth media to a final concentration of 10%. Cells are incubated a further 6 hours and then the Alamar Blue fluorescence intensity recorded using a Victor 3 platereader (PerkinElmer)(ex/em 530/590). All experiments are performed at least twice and the background (no cells)-subtracted Alamar Blue values for each combination are averaged between replicates.

[3] = In vitro stability study in mouse plasma; type: in vitro ADME
Method: The assay was conducted by incubating 1 μM of test compounds with Mouse Plasma (Strain […]) for a series of incubation times (0, 15, 30, 60, 120 minutes) at various temperatures (wet ice, room temperature, or 37° C.) with 5% CO2 and shaking (130 rpm). At each time point, the samples were quenched with 200 μL of stop solution containing an internal standard and kept on ice. The samples were analysed by LC-MS/MS.

[4] = pH 7.4, Mouse, Compound Conc = 0.5 μM, read-out: Half life (t½)
[5] = HT-1080, Table 1 (Example 10), erastin (10 μM)-treated HT-1080 cells

CCOC(=O)[C@H]1O[C@@H]1C(=O)N[C@@H](CC(C)C)C(=O)NCCC(C)C (relative stereo) [Compound E64d, (2S,3S)-trans-epoxysuccinyl-L-leucylamido-3-methylbutane ethyl ester]
modulation of erastin-induced death [1]: not consistently modulated

Cn1cnc(N)c2ncnc1-2 [3-methyladenine]
modulation of erastin-induced death [1]: not consistently modulated

CCCC[C@@H](C=O)NC(=O)[C@H](CC(C)C)NC(=O)[C@H](CC(C)C)NC(C)=O [ALLN, N-Acetyl-Leu-Leu-Nle-CHO] (Ac-Leu-Leu-[Nle]-aldehyde)
modulation of erastin-induced death [1]: not consistently modulated

C[C@@H]1C[C@@H]([C@H](O)CC2CC(=O)NC(=O)C2)C(=O)[C@@H](C)C1 [CHX, cycloheximide]
modulation of erastin-induced death [1]: to a weaker extent

CCOC(=O)c1ccc(NC23CC4CC(CC(C4)C2)C3)c(/N=C\c2cncnc2)c1 [SRS15-72, ethyl 4-(adamantylamino)-3-(pyrimidin-5-ylmethyleneamino)benzoate]
Elimination rate constant (k) ([2]; Compound Conc = 0.5 μM): 0.0045 | Intrinsic Clearance (CLint) (mL/min/g liver) ([2]; Compound Conc = 0.5 μM): 0.47 mL/min/g liver | half-life at 0.5 μM [2, 4]: 2.57 h | EC50 (HT-1080 cells; [5]): 288 nM | Peak Area Ratio ([3]; Room Temperature, 0 min): 2.0737 | Percent Remaining ([3]; Room Temperature, 0 min): 100.0% | Peak Area Ratio ([3]; Room Temperature, 15 min): 1.1581 | Percent Remaining ([3]; Room Temperature, 15 min): 55.8% | Peak Area Ratio ([3]; Room Temperature, 30 min): 0.5320 | Percent Remaining ([3]; Room Temperature, 30 min): 25.7% | Peak Area Ratio ([3]; Room Temperature, 60 min): 0.2502 | Percent Remaining ([3]; Room Temperature, 60 min): 12.1% | Peak Area Ratio ([3]; Room Temperature, 120 min): 0.0841 | Percent Remaining ([3]; Room Temperature, 120 min): 4.1% | Peak Area Ratio ([3]; Wet Ice, 0 min): 2.6066 | Percent Remaining ([3]; Wet Ice, 0 min): 100.0% | Peak Area Ratio ([3]; Wet Ice, 15 min): 2.0815 | Percent Remaining ([3]; Wet Ice, 15 min): 79.9% | Peak Area Ratio ([3]; Wet Ice, 30 min): 1.6279 | Percent Remaining ([3]; Wet Ice, 30 min): 62.5% | Peak Area Ratio ([3]; Wet Ice, 60 min): 1.4397 | Percent Remaining ([3]; Wet Ice, 60 min): 55.2% | Peak Area Ratio ([3]; Wet Ice, 120 min): 1.2446 | Percent Remaining ([3]; Wet Ice, 120 min): 47.7%

CCOC(=O)c1ccc(NC23CC4CC(CC(C4)C2)C3)c(NCc2cncnc2)c1 [SRS16-41, ethyl 4-(adamantylamino)-3-(pyrimidin-5-ylmethylamino)benzoate]
Elimination rate constant (k) ([2]; Compound Conc = 0.5 μM): 0.3149 | Intrinsic Clearance (CLint) (mL/min/g liver) ([2]; Compound Conc = 0.5 μM): 35.9 mL/min/g liver | half-life at 0.5 μM [2, 4]: 0.0333 h | EC50 (HT-1080 cells; [5]): 16 nM | Peak Area Ratio ([3]; Room Temperature, 0 min): 5.8556 | Percent Remaining ([3]; Room Temperature, 0 min): 100.0% | Peak Area Ratio ([3]; Room Temperature, 15 min): 0.6709 | Percent Remaining ([3]; Room Temperature, 15 min): 11.5% | Peak Area Ratio ([3]; Room Temperature, 30 min): 0.0885 | Percent Remaining ([3]; Room Temperature, 30 min): 1.5% | Peak Area Ratio ([3]; Room Temperature, 60 min): 0.0206 | Percent Remaining ([3]; Room Temperature, 60 min): 0.4% | Peak Area Ratio ([3]; Room Temperature, 120 min): 0.0159 | Percent Remaining ([3]; Room Temperature, 120 min): 0.3% | Peak Area Ratio ([3]; Wet Ice, 0 min): 6.9233 | Percent Remaining ([3]; Wet Ice, 0 min): 100.0% | Peak Area Ratio ([3]; Wet Ice, 15 min): 5.7631 | Percent Remaining ([3]; Wet Ice, 15 min): 83.2% | Peak Area Ratio ([3]; Wet Ice, 30 min): 4.7595 | Percent Remaining ([3]; Wet Ice, 30 min): 68.7% | Peak Area Ratio ([3]; Wet Ice, 60 min): 3.4547 | Percent Remaining ([3]; Wet Ice, 60 min): 49.9% | Peak Area Ratio ([3]; Wet Ice, 120 min): 1.9564 | Percent Remaining ([3]; Wet Ice, 120 min): 28.3%

CC(C)OC(=O)c1ccc(NC23CC4CC(CC(C4)C2)C3)c(/N=C\c2cncnc2)c1 [SRS16-80, isopropyl 4-(adamantylamino)-3-(pyrimidin-5-ylmethyleneamino)benzoate]
Elimination rate constant (k) ([2]; Compound Conc = 0.5 μM): 0.0089 | Intrinsic Clearance (CLint) (mL/min/g liver) ([2]; Compound Conc = 0.5 μM): 0.94 mL/min/g liver | half-life at 0.5 μM [2, 4]: 1.29 h | half-life at 0.5 μM ([2]; pH 7.4, stated in the text of Example 15, read-out: T1/2 in mouse liver microsomes): 2.57 h | fold lower potency caused by the imine (HT-1080 cells; HT-1080, erastin (10 μM)): about 6 fold | EC50 (HT-1080 cells; HT-1080, Example 15, erastin (10 μM), HT-1080): ~300 nM | EC50 (HT-1080 cells; [5]): 583 nM | mouse plasma stability [3]: rapidly hydrolyzed | Percent Remaining ([3]; 37° C., 0 minutes): 100.0% | Sum of Peak Area Ratios ([3]; 37° C., 0 minutes): 0.382 | Percent Remaining ([3]; 37° C., 15 minutes): 23.8% | Sum of Peak Area Ratios ([3]; 37° C., 15 minutes): 0.0911 | Percent Remaining ([3]; 37° C., 30 minutes): 9.9% | Sum of Peak Area Ratios ([3]; 37° C., 30 minutes): 0.0379 | Percent Remaining ([3]; 37° C., 60 minutes): 4.5% | Sum of Peak Area Ratios ([3]; 37° C., 60 minutes): 0.017 | Percent Remaining ([3]; 37° C., 120 minutes): 2.5% | Sum of Peak Area Ratios ([3]; 37° C., 120 minutes): 0.0095 | half-life at 1 μM ([3]; C57BL/4, mouse, plasma, read-out: T1/2 in mouse plasma): < 0.25 h

CO/C1=C\C(C)=C\[C@@H](C)[C@@H](O)[C@@H](C)C/C(C)=C/C=C/[C@H](OC)[C@@H]([C@@H](C)[C@@H](O)[C@H](C)[C@@]2(O)C[C@@H](O)[C@H](C)[C@@H](C(C)C)O2)OC1=O [bafilomycin A1]
modulation of erastin-induced death [1]: not consistently modulated

CCN(CC)CCCC(C)Nc1ccnc2cc(Cl)ccc12 (centres unmarked) [chloroquine]
modulation of erastin-induced death [1]: not consistently modulated

COC(=O)CC(NC(=O)C(C)NC(=O)C(NC(=O)OCc1ccccc1)C(C)C)C(=O)CF (stereo not drawn) [z-VAD-fmk, carbobenzyloxy-valyl-alanyl-aspartyl-[O-methyl]-fluoromethylketone] (Cbz-Val-Ala-Asp(OMe)-CH2F; configuration not given here)
modulation of erastin-induced death [1]: not consistently modulated

Reference: US11192849B2, “Compounds, compositions, and methods for modulating ferroptosis and treating excitotoxic disorders” (THE TRUSTEES OF COLUMBIA UNIVERSITY IN THE CITY OF NEW YORK, priority 2013, dated 2021)
